Results from patent publication US20110183942A1, “Methods and Compositions for Treating Alzheimer's Disease” (UNIVERSITY OF MEDICINE AND DENTISTRY OF NEW JERSEY, priority 2008, published 2011).

Biological target: T1, eEF2 kinase (Homo sapiens, UniProt O00418)
T1 construct: made in house; host or cells: E. coli
Experiment: HTS screen for eEF2 kinase inhibitors (ATP depletion coupled to luciferase luminescence, eEF2p substrate)
Assay type: biochemical

## CCCCCCCCCCCCCCCCN1C=CN(c2ccccc2)C1 [L-207]
  identified as inhibitor for eEF2 kinase: inhibitors for eEF2 kinase
